These results are taken from patent US20170190705A1, “Compositions and Methods for Inhibiting BMP” (THE BRIGHAM AND WOMAN'S HOSPITAL, INC., priority 2014, published 2017).

Format in all cases: biochemical
For test [1], the target named is BTK (Homo sapiens, UniProt Q06187). The test is described as follows: Kinome profiling BTK. The note with it: read-out: Inhibitory activity BTK; for inhibition at 0.1 µM: 100 nM. On the procedure:
(§1) . The kinome-wide selectivity was determined following the methods previously reported by Mohedas et al., ACS Chem Biol 2013, 8, 1291-1302 and Sanvitale et al., PLoS One 2013, 8, e62721.

Test [2] addresses INSR (Homo sapiens, UniProt P06213). Description: Kinome profiling INSR. Conditions: read-out: Inhibitory activity INSR; for inhibition at 0.1 µM: 100 nM. As for the experimental part: as §1
The target of test [3] is DYRK1A (Homo sapiens, UniProt Q13627). The test is described as follows: Kinome profiling DYRK1A. The note with it: read-out: Inhibitory activity DYRK1A; for inhibition at 0.1 µM: 100 nM. As for the experimental part: as §1
Test [4] deals with T1, PHKγ2 (Homo sapiens, UniProt P15735).
T1 sequence (P15735 1-406): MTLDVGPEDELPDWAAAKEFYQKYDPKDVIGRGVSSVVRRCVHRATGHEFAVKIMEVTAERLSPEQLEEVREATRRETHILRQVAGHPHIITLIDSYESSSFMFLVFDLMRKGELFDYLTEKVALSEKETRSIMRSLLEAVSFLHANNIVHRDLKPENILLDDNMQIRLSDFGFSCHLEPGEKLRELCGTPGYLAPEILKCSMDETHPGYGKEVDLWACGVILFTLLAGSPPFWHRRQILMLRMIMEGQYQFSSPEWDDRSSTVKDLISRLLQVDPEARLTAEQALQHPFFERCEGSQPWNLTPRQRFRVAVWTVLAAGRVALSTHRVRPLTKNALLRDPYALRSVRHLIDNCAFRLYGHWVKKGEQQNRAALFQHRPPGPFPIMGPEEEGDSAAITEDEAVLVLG
The test is described as follows: Kinome profiling PHKγ2. Conditions: read-out: Inhibitory activity PHKγ2; for inhibition at 0.1 µM: 100 nM. As for the experimental part: as §1

Test [5] deals with T2, PRAK (Homo sapiens, UniProt Q8IW41).
T2 sequence (Q8IW41 1-473): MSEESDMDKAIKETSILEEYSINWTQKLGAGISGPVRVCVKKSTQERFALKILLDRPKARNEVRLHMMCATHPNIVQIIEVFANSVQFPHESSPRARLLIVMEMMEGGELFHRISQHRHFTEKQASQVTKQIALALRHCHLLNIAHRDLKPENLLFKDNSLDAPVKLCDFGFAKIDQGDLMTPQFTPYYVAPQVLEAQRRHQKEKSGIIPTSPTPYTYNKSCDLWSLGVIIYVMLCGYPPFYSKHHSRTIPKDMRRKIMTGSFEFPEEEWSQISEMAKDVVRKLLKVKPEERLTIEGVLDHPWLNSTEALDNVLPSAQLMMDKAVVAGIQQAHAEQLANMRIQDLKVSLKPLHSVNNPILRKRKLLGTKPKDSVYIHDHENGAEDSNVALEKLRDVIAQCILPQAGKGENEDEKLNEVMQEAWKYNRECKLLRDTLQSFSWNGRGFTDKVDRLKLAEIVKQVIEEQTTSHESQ
Description: Kinome profiling PRAK. The note with it: read-out: Inhibitory activity PRAK; for inhibition at 0.1 µM: 100 nM. On the procedure:
as §1

Test [6] deals with T3, PRKX (Homo sapiens, UniProt P51817).
T3 sequence (P51817 1-358): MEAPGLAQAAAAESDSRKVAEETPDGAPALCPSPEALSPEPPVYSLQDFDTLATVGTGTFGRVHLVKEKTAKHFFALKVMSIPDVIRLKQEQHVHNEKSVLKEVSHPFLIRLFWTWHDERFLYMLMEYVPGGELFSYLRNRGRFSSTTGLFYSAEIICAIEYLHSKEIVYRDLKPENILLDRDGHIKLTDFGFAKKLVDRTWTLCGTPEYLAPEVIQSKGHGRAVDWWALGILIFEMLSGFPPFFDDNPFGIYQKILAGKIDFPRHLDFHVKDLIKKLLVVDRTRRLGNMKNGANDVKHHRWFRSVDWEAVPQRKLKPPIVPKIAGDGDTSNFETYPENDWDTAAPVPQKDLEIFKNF
The test is described as follows: Kinome profiling PRKX. Conditions: read-out: Inhibitory activity PRKX; for inhibition at 0.1 µM: 100 nM. As for the experimental part: as §1

Test [7] concerns the target T4, AXL (Homo sapiens, UniProt P30530).
T4 sequence (P30530 26-894): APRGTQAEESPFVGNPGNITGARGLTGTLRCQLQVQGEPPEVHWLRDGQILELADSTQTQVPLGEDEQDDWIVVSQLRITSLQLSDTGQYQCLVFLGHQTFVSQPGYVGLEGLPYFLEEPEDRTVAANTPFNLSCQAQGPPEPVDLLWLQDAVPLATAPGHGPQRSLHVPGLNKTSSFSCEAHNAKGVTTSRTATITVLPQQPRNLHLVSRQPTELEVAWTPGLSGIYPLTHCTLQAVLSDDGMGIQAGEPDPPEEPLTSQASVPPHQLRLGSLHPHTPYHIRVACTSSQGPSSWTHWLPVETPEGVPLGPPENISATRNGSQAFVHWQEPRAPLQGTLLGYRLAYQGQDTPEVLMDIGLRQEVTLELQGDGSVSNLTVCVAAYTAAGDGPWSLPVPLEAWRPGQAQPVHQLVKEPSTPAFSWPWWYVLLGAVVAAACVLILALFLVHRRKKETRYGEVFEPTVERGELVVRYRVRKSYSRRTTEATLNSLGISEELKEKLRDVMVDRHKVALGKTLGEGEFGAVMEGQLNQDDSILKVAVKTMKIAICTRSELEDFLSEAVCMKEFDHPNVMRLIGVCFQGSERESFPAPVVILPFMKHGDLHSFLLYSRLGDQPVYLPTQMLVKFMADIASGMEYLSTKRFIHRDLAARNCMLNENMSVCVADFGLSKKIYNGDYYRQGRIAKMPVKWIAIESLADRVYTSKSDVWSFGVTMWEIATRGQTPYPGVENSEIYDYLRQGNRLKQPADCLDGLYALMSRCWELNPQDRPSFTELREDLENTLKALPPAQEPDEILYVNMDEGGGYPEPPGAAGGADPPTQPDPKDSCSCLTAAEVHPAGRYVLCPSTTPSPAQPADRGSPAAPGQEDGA
The test is described as follows: Kinome profiling AXL. The note with it: read-out: Inhibitory activity AXL; for inhibition at 0.1 µM: 100 nM. On the procedure: as §1

In test [8] the target is MAPKAPK2 (Homo sapiens, UniProt P49137). The test is described as follows: Kinome profiling MAPKAPK2. The note with it: read-out: Inhibitory activity MAPKAPK2; for inhibition at 0.1 µM: 100 nM. On the procedure: as §1
MAPKAPK2, sequence (P49137 whole entry): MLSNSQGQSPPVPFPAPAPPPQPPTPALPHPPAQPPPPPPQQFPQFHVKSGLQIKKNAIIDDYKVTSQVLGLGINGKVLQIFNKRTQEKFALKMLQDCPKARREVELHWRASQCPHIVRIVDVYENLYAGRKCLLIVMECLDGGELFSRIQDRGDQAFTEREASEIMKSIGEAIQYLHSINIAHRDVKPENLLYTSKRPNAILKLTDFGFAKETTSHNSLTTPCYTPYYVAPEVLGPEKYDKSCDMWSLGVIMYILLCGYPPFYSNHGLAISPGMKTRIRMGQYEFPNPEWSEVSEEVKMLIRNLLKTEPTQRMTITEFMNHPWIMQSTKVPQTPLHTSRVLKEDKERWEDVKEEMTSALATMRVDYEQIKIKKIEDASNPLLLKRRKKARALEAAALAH

INSR, sequence (P06213 28-1382): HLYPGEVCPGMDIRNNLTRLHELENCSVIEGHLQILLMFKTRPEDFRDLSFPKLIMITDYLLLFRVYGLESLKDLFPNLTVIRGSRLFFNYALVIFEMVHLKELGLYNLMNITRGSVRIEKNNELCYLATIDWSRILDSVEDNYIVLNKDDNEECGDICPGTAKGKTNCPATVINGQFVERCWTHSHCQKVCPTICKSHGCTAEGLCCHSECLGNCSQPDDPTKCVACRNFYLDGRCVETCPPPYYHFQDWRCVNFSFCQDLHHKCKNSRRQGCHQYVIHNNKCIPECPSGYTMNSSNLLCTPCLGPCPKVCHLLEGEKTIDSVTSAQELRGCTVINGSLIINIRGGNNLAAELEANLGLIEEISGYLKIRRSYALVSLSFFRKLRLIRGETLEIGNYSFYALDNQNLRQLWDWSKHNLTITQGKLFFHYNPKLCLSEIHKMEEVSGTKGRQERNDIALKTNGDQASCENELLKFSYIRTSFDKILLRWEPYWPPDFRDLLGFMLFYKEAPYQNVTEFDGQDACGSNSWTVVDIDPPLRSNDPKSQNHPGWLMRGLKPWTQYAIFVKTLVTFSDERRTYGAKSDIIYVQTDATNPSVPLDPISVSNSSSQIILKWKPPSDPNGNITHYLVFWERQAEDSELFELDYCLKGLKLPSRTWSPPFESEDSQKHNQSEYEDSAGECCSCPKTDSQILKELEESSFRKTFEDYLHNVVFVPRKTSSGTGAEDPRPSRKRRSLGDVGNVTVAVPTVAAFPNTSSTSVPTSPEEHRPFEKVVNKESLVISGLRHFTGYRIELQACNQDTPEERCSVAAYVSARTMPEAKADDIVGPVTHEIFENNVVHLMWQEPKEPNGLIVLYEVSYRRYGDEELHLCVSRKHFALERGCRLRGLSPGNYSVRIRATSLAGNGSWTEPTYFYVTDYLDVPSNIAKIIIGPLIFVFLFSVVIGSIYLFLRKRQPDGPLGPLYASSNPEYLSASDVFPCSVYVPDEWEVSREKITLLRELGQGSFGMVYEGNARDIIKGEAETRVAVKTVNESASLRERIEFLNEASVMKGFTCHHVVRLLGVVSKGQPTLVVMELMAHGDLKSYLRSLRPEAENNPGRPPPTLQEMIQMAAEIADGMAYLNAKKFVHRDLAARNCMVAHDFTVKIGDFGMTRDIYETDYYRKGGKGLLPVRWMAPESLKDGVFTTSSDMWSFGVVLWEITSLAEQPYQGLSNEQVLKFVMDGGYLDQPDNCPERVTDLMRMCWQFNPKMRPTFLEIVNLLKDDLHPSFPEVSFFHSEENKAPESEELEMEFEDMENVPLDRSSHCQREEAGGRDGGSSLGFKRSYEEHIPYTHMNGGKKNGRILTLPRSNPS
BTK, sequence (Q06187 whole entry): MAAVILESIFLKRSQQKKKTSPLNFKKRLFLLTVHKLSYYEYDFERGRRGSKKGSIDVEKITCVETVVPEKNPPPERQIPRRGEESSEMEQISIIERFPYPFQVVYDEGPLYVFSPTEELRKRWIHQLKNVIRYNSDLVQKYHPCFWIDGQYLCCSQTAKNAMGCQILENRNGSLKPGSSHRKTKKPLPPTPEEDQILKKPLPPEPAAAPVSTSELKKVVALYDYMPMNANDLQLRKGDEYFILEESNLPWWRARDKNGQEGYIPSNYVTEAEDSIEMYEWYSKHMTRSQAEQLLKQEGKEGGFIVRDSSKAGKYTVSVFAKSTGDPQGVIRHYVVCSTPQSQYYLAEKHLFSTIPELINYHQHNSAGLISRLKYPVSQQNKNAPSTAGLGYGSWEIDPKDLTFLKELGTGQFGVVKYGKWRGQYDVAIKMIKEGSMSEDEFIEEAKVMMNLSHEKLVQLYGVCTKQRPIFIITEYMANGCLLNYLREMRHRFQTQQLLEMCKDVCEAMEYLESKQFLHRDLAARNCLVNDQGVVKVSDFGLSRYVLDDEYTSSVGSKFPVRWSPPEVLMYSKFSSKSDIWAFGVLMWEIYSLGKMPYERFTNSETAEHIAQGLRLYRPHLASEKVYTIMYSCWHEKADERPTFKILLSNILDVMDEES

As for `COc1cc(-c2cc(-c3ccc(N4CCNCC4)cc3)cnc2N)cc(OC)c1OC` [Compound 15, 5-(4-(piperazin-1-yl)phenyl)-3-(3,4,5-trimethoxyphenyl)pyridin-2-amine], the inhibition at 0.1 µM in test [1] was found to be 3%; in test [2], 4%; in test [3], 2%; in test [4] it was 2%; in test [5], 1%; in test [6] it was 1%. Besides, the results for the inhibition at 0.1 µM in test [7] and in test [8] were -4% and 0%, respectively. The inhibition at 1 µM in test [1] was 20%; in test [2], 8%; in test [3], 5%; in test [4], 3%; in test [5] it was 1%; in test [6], 0%. The figures for the inhibition at 1 µM in test [7] and in test [8] were -1% and -4%, respectively.
For `COc1cc(-c2cc(-c3ccc(N4CCNCC4)cc3)cnc2C)cc(OC)c1OC` [Compound 10, 1-(4-(6-methyl-5-(3,4,5-trimethoxyphenyl)pyridin-3-yl)phenyl)piperazine], the inhibition at 0.1 µM came out at 1% in test [1]; 3% in test [2]; 3% in test [3]; 1% in test [4]; 0% in test [5]; 0% in test [6]. In addition, the inhibition at 0.1 µM in test [7] is 1%; in test [8], 4%. Also, the inhibition at 1 µM in test [1] was -2%; in test [2], 3%; in test [3], 5%; in test [4], 0%; in test [5], 3%; in test [6] it was 1%. Further, the results for the inhibition at 1 µM in test [7] and in test [8] were 7% and 4%, respectively.
